Experimental data as given in patent publication US20260191821A1, “COMPOSITIONS AND METHODS FOR TREATING NEURODEGENERATIVE DISEASES” (The General Hospital Corporation, priority 2023, published 2026).
Like-named read-outs stand apart in the source and are kept apart here.

What was measured:
TNFα = TNFα release by LPS-activated BV2 microglial cells, ELISA on conditioned cell media; type: cell-based; conditions: for TNFα release / LPS-induced microglial pro-inflammatory activation: Example 1, BV2 cells, FIGS. 2, 4B, 5; for TNFα release / LPS-induced microglial pro-inflammatory activation / EC50: 1 μg/mL LPS for 5 hours; for EC50: Mus musculus, BV-2, BV2 cells, read-out: EC50 of TNFα reduction
Experimental: Effects of urolithin A and fisetin on the reduction of pro-inflammatory cytokines levels, such as TNFα, were assessed in an unbiased library screening. BV2 microglial cells were converted to a pro-inflammatory activation state by acute treatment with 1 μg/mL of Lipopolysaccharide (LPS) for 5 hours in the presence of a vehicle or urolithin A or fisetin. Effects on inflammation were assessed by measuring levels of a representative pro-inflammatory cytokine, TNFα, via an ELISA assay on the conditioned cell media. FIGS. 2A and 2B show representative results of the dose-response reduction of TNFα after treatment with LPS and urolithin A and fisetin, respectively.
BV2 microglial cells were next treated with 1 μg/mL of LPS for 5 hours in the presence of urolithin A and fisetin at different concentrations, alone or in combination (FIG. 5). Levels of TNFα secreted by the microglial cells into the conditioned cell media were measured using ELISA.
Effects of urolithin A, fisetin, nicotinamide riboside, cat's claw, and quercetin, alone or in combination, on TNFα concentration were assessed (FIGS. 6A-6E and 7A-7C). BV2 microglial cells were converted to a pro-inflammatory activation state by acute treatment with 1 μg/mL of Lipopolysaccharide (LPS) for 5 hours in the presence of a vehicle or nicotinamide riboside (#101), cat's claw (#134), urolithin A (#144), fisetin (NP-82) or quercetin (NP-162), alone or in combination. Effects on inflammation were assessed by measuring levels of TNF&, via an ELISA assay on the conditioned cell media.

BV2 microglial cells = assay: Microglial Aβ42 uptake/clearance in BV2 microglial cells, measured by Aβ ELISA; type: cell-based
Experimental: Urolithin A was identified as a top-tier enhancer of Aβ clearance by microglia in an unbiased (and biased) screening of natural product compounds. Cellular assay models based on BV2 microglial cells were used to assess the ability of microglia to phagocytose synthetic Aβ42 peptides, a major pathogenic Aβ isoform of Alzheimer's disease Aβ species (microglial uptake/clearance).
The ability of the agents, alone or in combination, to increase microglial Aβ uptake was also assessed (FIG. 9). […] FIGS. 11B-11D and FIGS. 12A-12F show TNFα levels in response to treatment with cat's claw (#134), urolithin A (#144), fisetin (NP-82) and quercetin (NP-162), alone or in various combinations.

[1] = 500 mg to 1000 mg daily; cited from earlier work

| Structure (SMILES) | TNFα release / LPS-induced microglial pro-inflammatory activation (TNFα) | EC50 (TNFα; FIG. 2B) [µM] | reduction of TNFα levels (TNFα; fisetin alone, LPS-treated BV2 microglia cells, FIG. 4B) | microglial Aβ uptake/clearance (BV2 microglial cells; Example 1, BV2 microglial cells, FIG. 1 and FIG. 3) | EC50 (BV2 microglial cells; Mus musculus, BV-2, BV2 microglial cells, synthetic Aβ42 peptides, FIG. 1) [µM] | EC50 (TNFα; FIG. 2A) [µM] | reported safety and/or usefulness [1] |
| --- | --- | --- | --- | --- | --- | --- | --- |
| O=c1c(O)c(-c2ccc(O)c(O)c2)oc2cc(O)ccc12 [fisetin, 3,3′,4′,7-tetrahydroxyflavone] | reduce TNFα release by LPS-activated microglia in a dose-dependent manner | 8 | roughly 75% | – | – | – | – |
| O=c1oc2cc(O)ccc2c2ccc(O)cc12 [urolithin A, 3,8-dihydroxy-6H-benzo[b,d]pyran-6-one] | reduce TNFα release by LPS-activated microglia in a dose-dependent manner | – | – | increases microglial Aβ uptake/clearance in a dose-dependent manner | 12.4 | 21 | safe and/or useful |
